# Publication PMC6979384, “Characterization of the plant homeodomain (PHD) reader family for their histone tail interactions” (Epigenetics & Chromatin, 2020)
# What was measured:
# Experiment in all cases: Histone peptide microarray
# Type in all cases: binding, human
# Conditions in all cases: sheet "Array Heatmap"
# KDM7A = test system: KDM7A
# Method in brief: (§1)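 GST-tagged PHD readers, 0.5 μM, probed on a microarray of 293 synthetic histone peptides carrying single or combinatorial PTMs (optimized Petell protocol). Signals are averaged over 4 replicates and expressed as relative binding.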
# KDM5B (3) = test system: KDM5B (3)
# Method in brief: as §1
# KDM5A (1) = test system: KDM5A (1)
# Method in brief: as §1
# CHD5 (PCC) = test system: CHD5 (PCC)
# Method in brief: as §1
# DPF2 (PPC2W2) = test system: DPF2 (PPC2W2)
# Method in brief: as §1
# MORC3 (CW) = test system: MORC3 (CW)
# Method in brief: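 Purified PHD finger domains fused to GST are screened against 293 synthetic histone peptides bearing one or several post-translational modifications. The protein is used at 0.5 μM, and the signal from four replicate arrays is averaged, with standard deviation given.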
# RAG2 = test system: RAG2
# Method in brief: as §1
# PHF8 = test system: PHF8
# Method in brief: as §1
# TRIM66 (PB) = test system: TRIM66 (PB)
# Method in brief: as §1
# KDM5B (1) = test system: KDM5B (1)
# Method in brief: as §1
# TAF3 = test system: TAF3
# Method in brief: as §1
# PHF13 = test system: PHF13
# Method in brief: as §1
# DIDO1 = test system: DIDO1
# Method in brief: as §1
# PHF21A = test system: PHF21A
# Method in brief: as §1
# CHD5 (PPCC) = test system: CHD5 (PPCC)
# Method in brief: as §1
# PHRF1 (RP) = test system: PHRF1 (RP)
# Method in brief: as §1
# KDM4C (TTP) = test system: KDM4C (TTP)
# Method in brief: as §1
# PHF2 = test system: PHF2
# Method in brief: as §1
# ING1 = test system: ING1
# Method in brief: as §1
# BAZ2B = test system: BAZ2B
# Method in brief: as §1
# ING4 = test system: ING4
# Method in brief: as §1
# PHF23 = test system: PHF23
# Method in brief: as §1
# SP140L = test system: SP140L
# Method in brief: as §1
# ING2 = test system: ING2
# Method in brief: as §1
# ING3 = test system: ING3
# Method in brief: as §1
# CHD4 (PPCC) = test system: CHD4 (PPCC)
# Method in brief: as §1
# BPTF (PB) = test system: BPTF (PB)
# Method in brief: as §1
# MLL5 = test system: MLL5
# Method in brief: as §1
# KDM5A (3) = test system: KDM5A (3)
# Method in brief: as §1
# AIRE (PP) = test system: AIRE (PP)
# Method in brief: as §1
# ING5 = test system: ING5
# Method in brief: as §1
# [1] = GST-tagged reader, histone peptide array, total n = 4
substance,measurement,setting,value
H3.3K27me3 + S28p: H3.3 15-34,"Array Heatmap signal, KDM7A","KDM7A; GST-tagged KDM7A, arrays performed twice, total replicate number n = 4",0.2454
same,"Array Heatmap signal, KDM5B (3)","KDM5B (3); GST-tagged KDM5B (3), arrays performed twice, total replicate number n = 4",0.357
same,"Array Heatmap signal, KDM5A (1)","KDM5A (1); GST-tagged KDM5A (1), arrays performed twice, total replicate number n = 4",0.3549
same,"Array Heatmap signal, CHD5 (PCC)","CHD5 (PCC); GST-tagged CHD5 (PCC), arrays performed twice, total replicate number n = 4",0.7455
same,"Array Heatmap signal, DPF2 (PPC2W2)","DPF2 (PPC2W2); GST-tagged DPF2 (PPC2W2), arrays performed twice, total replicate number n = 4",0.5839
same,"Array Heatmap signal, MORC3 (CW)","MORC3 (CW); GST-tagged MORC3 (CW), arrays performed twice, total replicate number n = 4",0.3155
same,"Array Heatmap signal, RAG2","RAG2; GST-tagged RAG2, arrays performed twice, total replicate number n = 4",0.2001
same,"Array Heatmap signal, PHF8","PHF8; GST-tagged PHF8, arrays performed twice, total replicate number n = 4",0.2831
same,"Array Heatmap signal, TRIM66 (PB)","TRIM66 (PB); GST-tagged TRIM66 (PB), arrays performed twice, total replicate number n = 4",0.52
same,"Array Heatmap signal, KDM5B (1)","KDM5B (1); GST-tagged KDM5B (1), arrays performed twice, total replicate number n = 4",0.5567
same,"Array Heatmap signal, TAF3","TAF3; GST-tagged TAF3, arrays performed twice, total replicate number n = 4",0.2035
same,"Array Heatmap signal, PHF13","PHF13; GST-tagged PHF13, arrays performed twice, total replicate number n = 4",0.4998
same,"Array Heatmap signal, DIDO1","DIDO1; GST-tagged DIDO1, arrays performed twice, total replicate number n = 4",0.6255
same,"Array Heatmap signal, PHF21A","PHF21A; GST-tagged PHF21A, arrays performed twice, total replicate number n = 4",0.4021
same,"Array Heatmap signal, CHD5 (PPCC)","CHD5 (PPCC); GST-tagged CHD5 (PPCC), arrays performed twice, total replicate number n = 4",0.4194
same,"Array Heatmap signal, PHRF1 (RP)","PHRF1 (RP); GST-tagged PHRF1 (RP), arrays performed twice, total replicate number n = 4",0.3794
same,"Array Heatmap signal, KDM4C (TTP)","KDM4C (TTP); GST-tagged KDM4C (TTP), arrays performed twice, total replicate number n = 4",0.35
same,"Array Heatmap signal, PHF2","PHF2; GST-tagged PHF2, arrays performed twice, total replicate number n = 4",0.4942
same,"Array Heatmap signal, ING1","ING1; GST-tagged ING1, arrays performed twice, total replicate number n = 4",0.4657
same,"Array Heatmap signal, BAZ2B","BAZ2B; GST-tagged BAZ2B, arrays performed twice, total replicate number n = 4",0.3578
same,"Array Heatmap signal, ING4","ING4; GST-tagged ING4, arrays performed twice, total replicate number n = 4",0.3661
same,"Array Heatmap signal, PHF23","PHF23; GST-tagged PHF23, arrays performed twice, total replicate number n = 4",0.4498
same,"Array Heatmap signal, SP140L","SP140L; GST-tagged SP140L, arrays performed twice, total replicate number n = 4",0.3164
same,"Array Heatmap signal, ING2","ING2; GST-tagged ING2, arrays performed twice, total replicate number n = 4",0.582
same,"Array Heatmap signal, ING3","ING3; GST-tagged ING3, arrays performed twice, total replicate number n = 4",0.4009
same,"Array Heatmap signal, CHD4 (PPCC)","CHD4 (PPCC); GST-tagged CHD4 (PPCC), arrays performed twice, total replicate number n = 4",0.5244
same,"Array Heatmap signal, BPTF (PB)","BPTF (PB); GST-tagged BPTF (PB), arrays performed twice, total replicate number n = 4",0.288
same,"Array Heatmap signal, MLL5","MLL5; GST-tagged MLL5, arrays performed twice, total replicate number n = 4",0.4825
same,"Array Heatmap signal, KDM5A (3)","KDM5A (3); GST-tagged KDM5A (3), arrays performed twice, total replicate number n = 4",0.3655
same,"Array Heatmap signal, AIRE (PP)","AIRE (PP); GST-tagged AIRE (PP), arrays performed twice, total replicate number n = 4",0.3112
same,"Array Heatmap signal, ING5","ING5; GST-tagged ING5, arrays performed twice, total replicate number n = 4",0.2601
H3R8me2a + K9me3: H3 1-20,"Array Heatmap signal, KDM7A",KDM7A; [1],0.3302
same,"Array Heatmap signal, KDM5B (3)",KDM5B (3); [1],0.5093
same,"Array Heatmap signal, KDM5A (1)",KDM5A (1); [1],0.4583
same,"Array Heatmap signal, CHD5 (PCC)",CHD5 (PCC); [1],0.7117
same,"Array Heatmap signal, DPF2 (PPC2W2)",DPF2 (PPC2W2); [1],0.714
same,"Array Heatmap signal, MORC3 (CW)",MORC3 (CW); [1],0.4005
same,"Array Heatmap signal, RAG2",RAG2; [1],0.2449
same,"Array Heatmap signal, PHF8",PHF8; [1],0.3554
same,"Array Heatmap signal, TRIM66 (PB)",TRIM66 (PB); [1],0.5712
same,"Array Heatmap signal, KDM5B (1)",KDM5B (1); [1],0.64
same,"Array Heatmap signal, TAF3",TAF3; [1],0.2595
same,"Array Heatmap signal, PHF13",PHF13; [1],0.5734
same,"Array Heatmap signal, DIDO1",DIDO1; [1],0.7155
same,"Array Heatmap signal, PHF21A",PHF21A; [1],0.4463
same,"Array Heatmap signal, CHD5 (PPCC)",CHD5 (PPCC); [1],0.5418
same,"Array Heatmap signal, PHRF1 (RP)",PHRF1 (RP); [1],0.6376
same,"Array Heatmap signal, KDM4C (TTP)",KDM4C (TTP); [1],0.4618
same,"Array Heatmap signal, PHF2",PHF2; [1],0.5753
same,"Array Heatmap signal, ING1",ING1; [1],0.57
same,"Array Heatmap signal, BAZ2B",BAZ2B; [1],0.4376
same,"Array Heatmap signal, ING4",ING4; [1],0.4504
same,"Array Heatmap signal, PHF23",PHF23; [1],0.5164
same,"Array Heatmap signal, SP140L",SP140L; [1],0.3611
same,"Array Heatmap signal, ING2",ING2; [1],0.595
same,"Array Heatmap signal, ING3",ING3; [1],0.4657
same,"Array Heatmap signal, CHD4 (PPCC)",CHD4 (PPCC); [1],0.5686
same,"Array Heatmap signal, BPTF (PB)",BPTF (PB); [1],0.3424
same,"Array Heatmap signal, MLL5",MLL5; [1],0.5407
same,"Array Heatmap signal, KDM5A (3)",KDM5A (3); [1],0.5315
same,"Array Heatmap signal, AIRE (PP)",AIRE (PP); [1],0.4401
same,"Array Heatmap signal, ING5",ING5; [1],0.3474
